Assay results reported in patent US20150290306A1, “COMPOSITIONS AND METHODS FOR DIAGNOSIS AND TREATMENT OF MALIGNANT GLIOMAS” (priority 2012, published 2015).

Experiments:
PBMCs = assay: PBMC culture with candidate peptides for 14 days, IFN-γ and IL-5 in supernatant by ELISA; format: cell-based, human; settings: for IFN-γ/IL-5 ratio (geometric mean): peptide 10 μg/mL
Source text: Measurement of antigen-specific T cell responses in the peripheral blood in humans differs depending on whether responses are high affinity interactions with foreign (viral) epitopes or lower affinity interactions involving recognition of self-antigens. […] Given that T cell responses directed against MAGE and IL-13Rα2 antigens also involve T cells with low affinity to these self-antigens, antigen-specific responses were quantified based on cytokine secretion, as recently described in a phase I study of patients with MS (Viglietta V, et al: Neurology 2008, 71(12):917-924). Cytokine production was quantified by ELISA, defining a positive T cell response for each patient as the amounts of IFN-γ or IL-5 that were >50 pg/mL and two standard deviations above the mean cytokine levels secreted after stimulation of cells from that patient with negative control MBP peptide.
Twenty-five mL of blood from patients or healthy subjects was obtained under an IRB-approved protocol. All samples of blood from patients were taken at the time of surgery. […] All tumor-bearing patients received similar doses of steroids and anti-epileptic medications at the time of tumor debulking surgery prior to obtaining peripheral blood for these studies. T cell responses in patients with meningiomas controlled for influences of steroids on antigen responsiveness and cytokine balance. Tumor tissue was independently confirmed in all cases by formal pathological analysis. PBMCs were purified from heparinized blood by density gradient centrifugation using Ficoll-Hypaque (GE Healthcare Biosciences), and cells were then washed with PBS and viable cells quantified by trypan-blue staining.
Freshly isolated PBMCs were plated at 2×10^5 cells/well in 200 μl of serum-free X-VIVO15 (X15) media (Lonza) in 96-well round-bottom cell culture plates. Candidate peptides, in addition to a negative control peptide derived from MBP were added at a concentration of 10 μg/mL and anti-CD3 mAb was added at a concentration of 1 μg/mL. Six T cell cultures were established for each condition in each subject, and 100 IU/ml of IL-2 was added on the following day. Plates were incubated at 37° C. and 5% CO2 for 14 days, with media changed as needed, and the supernatant was harvested to evaluate T cell responses (cytokines) induced by each condition using ELISA. In a limited number (n=3) of patients, cytokine production was assessed after both 7 and 14 days. […] An IFN-γ ELISPOT assay was performed as previously described (Lv H, Havari E, et al: J Clin Invest, 121(4):1561-1573).
To detect T helper cell responses directed against the candidate peptides, IFN-γ and IL-5 were measured by ELISA using commercially available kits supplied by BD bioscience. IFN-γ was used as a prototypic Th1 cytokine and IL-5 was chosen as a prototypic cytokine released by Th2 cells because unlike IL-4 there would be no potential consumption by antigen-specific T cells in the culture conditions (Kourilsky P, Truffa-Bachi P: Trends Immunol 2001, 22(9):502-509).

DRB1*04 and *15 alleles = settings: literature, Mycko et al. 2004; cited from earlier work

ENPVVHFFKNIVTPR [MBP85-99, reference compound]
mean cut-off for a positive cytokine response based on cytokine induced by control MBP peptide, IFN-γ (PBMCs; GBM patients): 123 pg/mL | mean cut-off for a positive cytokine response based on cytokine induced by control MBP peptide, IL-5 (PBMCs; GBM patients): 312 pg/mL | mean cut-off for a positive cytokine response based on cytokine induced by control MBP peptide, IFN-γ (PBMCs; healthy subjects): 895 pg/mL | HLA class II alleles shown to bind (experimental data) (DRB1*04 and *15 alleles): bind to both the DRB1*04 and *15 alleles

WQYFFPVIFSKASSSLQL [MAGE-A3143-160]
positive wells among 6 primary T cell responses (IFN-γ or IL-5 ELISA) (PBMCs; Healthy Subject 1): +++ (+++/++++ cell=3-4 positive wells) | positive wells among 6 primary T cell responses (IFN-γ or IL-5 ELISA) (PBMCs; Healthy Subject 2): +++ (+++/++++ cell=3-4 positive wells) | positive wells among 6 primary T cell responses (IFN-γ or IL-5 ELISA) (PBMCs; Healthy Subject 3): + (+/++ cell=1-2 positive wells) | positive wells among 6 primary T cell responses (IFN-γ or IL-5 ELISA) (PBMCs; Healthy Subject 4): +++++ (+++++/++++++ cell=5-6 positive wells) | positive wells among 6 primary T cell responses (IFN-γ or IL-5 ELISA) (PBMCs; Healthy Subject 5): ++ (+/++ cell=1-2 positive wells) | positive wells among 6 primary T cell responses (IFN-γ or IL-5 ELISA) (PBMCs; Healthy Subject 6): + (+/++ cell=1-2 positive wells) | positive wells among 6 primary T cell responses (IFN-γ or IL-5 ELISA) (PBMCs; Meningioma 4): + (+/++ cell=1-2 positive wells) | positive wells among 6 primary T cell responses (IFN-γ or IL-5 ELISA) (PBMCs; Meningioma 6): + (+/++ cell=1-2 positive wells) | positive wells among 6 primary T cell responses (IFN-γ or IL-5 ELISA) (PBMCs; Meningioma 7): + (+/++ cell=1-2 positive wells) | IFN-γ/IL-5 ratio, recurrent GBM patients compared to primary GBM patients (PBMCs; P<0.05): significantly lower | positive wells among 6 primary T cell responses (IFN-γ or IL-5 ELISA) (PBMCs; Primary GBM 1): ++++ (+++/++++ cell=3-4 positive wells) | positive wells among 6 primary T cell responses (IFN-γ or IL-5 ELISA) (PBMCs; Primary GBM 2): +++ (+++/++++ cell=3-4 positive wells) | positive wells among 6 primary T cell responses (IFN-γ or IL-5 ELISA) (PBMCs; Primary GBM 3): + (+/++ cell=1-2 positive wells) | positive wells among 6 primary T cell responses (IFN-γ or IL-5 ELISA) (PBMCs; Primary GBM 4): + (+/++ cell=1-2 positive wells) | positive wells among 6 primary T cell responses (IFN-γ or IL-5 ELISA) (PBMCs; Primary GBM 5): + (+/++ cell=1-2 positive wells) | positive wells among 6 primary T cell responses (IFN-γ or IL-5 ELISA) (PBMCs; Primary GBM 6): + (+/++ cell=1-2 positive wells) | positive wells among 6 primary T cell responses (IFN-γ or IL-5 ELISA) (PBMCs; Primary GBM 7): ++ (+/++ cell=1-2 positive wells) | positive wells among 6 primary T cell responses (IFN-γ or IL-5 ELISA) (PBMCs; Primary GBM 8): +++++ (+++++/++++++ cell=5-6 positive wells) | positive wells among 6 primary T cell responses (IFN-γ or IL-5 ELISA) (PBMCs; Recurrent GBM 1): + (+/++ cell=1-2 positive wells) | positive wells among 6 primary T cell responses (IFN-γ or IL-5 ELISA) (PBMCs; Recurrent GBM 3): + (+/++ cell=1-2 positive wells) | positive wells among 6 primary T cell responses (IFN-γ or IL-5 ELISA) (PBMCs; Recurrent GBM 4): + (+/++ cell=1-2 positive wells) | IFN-γ/IL-5 ratio (geometric mean) (PBMCs; healthy subjects): 4.3 | IFN-γ/IL-5 ratio (geometric mean) (PBMCs; patients with primary GBMs): 0.3 | IFN-γ/IL-5 ratio (geometric mean) (PBMCs; patients with recurrent GBMs): 0.4
